Laboratory results reported in patent publication US6207393A, “Inhibition of intracellular signal transduction by 14-3-3-binding peptides” (Washington University, priority 1999, dated 2001).
Read-outs that look alike come from different tables or passages of the source. Where a SMILES comes first, the peptide text is derived from it. [ ]: non-standard residue; d: D form. pS = N[C@@H](COP(=O)(O)O)C(=O)O

Tests used:
[1] = target: T1, 14-3-3 zeta (Homo sapiens, UniProt P63104); test: Displacement of 32P-labeled phosphorylated Raf-259 peptide from immobilized GST/14-3-3 zeta (scintigraphy); assay type: binding
T1 construct: made in house; host or cells: E. coli DH5α (vector pGEX-KT)
T1 sequence (P63104 1-245): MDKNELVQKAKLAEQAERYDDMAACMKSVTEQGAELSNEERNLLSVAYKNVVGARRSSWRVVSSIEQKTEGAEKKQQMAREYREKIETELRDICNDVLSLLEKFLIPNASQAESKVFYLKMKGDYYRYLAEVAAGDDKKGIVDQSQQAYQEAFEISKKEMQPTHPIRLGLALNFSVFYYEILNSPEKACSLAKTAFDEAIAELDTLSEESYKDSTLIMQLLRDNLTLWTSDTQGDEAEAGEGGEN
Procedure: The 14-3-3 protein isoforms for use in binding studies with the above peptides were prepared as proteins fused with glutathione-S-transferase (GST) and immobilized to glutathione agarose beads. GST/14-3-3 fusion proteins were made by generating BamHI and EcoRI restriction endonuclease sites (underlined) at the 5' and 3' ends respectively of the 14-3-3 cDNAs by polymerase chain reaction (PCR) using the following isoform sequence specific pairs of primers: 14-3-3 beta, […] (SEQ ID NO: 11), […] (SEQ ID NO: 12); 14-3-3 eta […] (SEQ ID NO: 13), […] (SEQ ID NO: 14); 14-3-3 tau […] (SEQ ID NO: 15), […] (SEQ ID NO: 16); 14-3-3 zeta […] (SEQ ID NO: 17), […] (SEQ ID NO: 18). The cDNA products were digested with BamHI and EcoRI, subcloned into the vector pGEX-KT (Guan and Dixon, Anal Biochem 192: 262-7, 1991 which is incorporated by reference). The vector was used to transform the DH5α strain of E. Coli. GST-14-3-3 fusion protein expression in log-growth phase bacterial cultures was accomplished by induction with 100 μM isopropyl β-D-thiogalactopyranoside (IPTG; Gold Biotechnology, St. Louis) for 4 hours. Cells were disrupted by sonication and lysates, containing 1% Triton X-100, were incubated with glutathione agarose beads (Sigma, St. Louis) at 4° C. overnight. Fusion proteins were eluted by incubation with 10 mM reduced glutathione (Sigma, St. Louis) in phosphate buffered saline for 1 hour at room temperature, dialyzed in phosphate buffered saline and quantitated by Coomassie staining SDS polyacrylamine gels compared against bovine serum albumin standards.
The Raf-259 peptide (SEQ ID NO: 4) was phosphorylated in vitro using protein kinase A (PKA) and [^32 P]-γ-ATP following the manufacturers instruction (PKA, New England Biolabs) with 20 μCi of [^32 P]-γ-ATP (NEN-Dupont, 6000 Ci/mmol). The efficiency of phosphorylation was calculated to be between 7 and 12% based upon the specific activity of the labelled peptide.
The labeled peptide was then incubated with immobilized 14-3-3 zeta fusion protein and binding of the labelled peptide was measured. […] Binding was also sequence specific. […]

[2] = target: T2, 14-3-3 eta (Homo sapiens, UniProt Q04917); test: Surface plasmon resonance kinetics, 14-3-3 eta binding to phosphorylated Raf-259 peptide; details: isoform eta
T2 construct: made in house; host or cells: E. coli DH5α (vector pGEX-KT)
T2 sequence (Q04917 1-246): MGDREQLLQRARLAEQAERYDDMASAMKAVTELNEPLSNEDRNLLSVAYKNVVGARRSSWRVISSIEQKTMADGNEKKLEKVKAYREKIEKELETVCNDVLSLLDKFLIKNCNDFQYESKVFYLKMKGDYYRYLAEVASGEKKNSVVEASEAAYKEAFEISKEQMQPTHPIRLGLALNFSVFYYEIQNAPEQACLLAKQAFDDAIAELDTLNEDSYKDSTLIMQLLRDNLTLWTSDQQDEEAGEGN
Procedure: Because the surface plasmon resonance detects binding in real time, this method can be used to directly determine the rates of association (kon) and dissociation (koff). For these kinetic measurements, GST/14-3-3 fusion proteins were injected over a range of concentrations between 200 nM and 5 μM. The "on" rate, kon, was determined by calculating dR/dt for the initial linear portion of association using the Biaevaluation software (Pharmacia). Because ligand rebinding to the sensor chip can affect the "off" rate (koff, Panayotou et al. Mol Cell Biol 13:3567-76, 1993 which is incorporated by reference), we measured the "off" rate in the presence of 50 μM free ligand by using the coinject function of the Biacore. The "off" rate measured in the absence of 50 μM free ligand was approximately 10-fold lower.
There are seven known isoforms of 14-3-3 which form homo- and heterodimers in vivo. If different isoforms of 14-3-3 could bind to proteins with distinct specificities, heterodimeric forms of 14-3-3 might function as modular linker proteins, bringing together different proteins into a single complex. We were, therefore, interested in determining whether different 14-3-3 isoforms recognize phosphoserine in a sequence specific fashion. This hypothesis was tested by expressing and purifying three other 14-3-3 isoforms, eta, beta and tau, and measuring their affinity towards the panel of phosphorylated peptides generated above. Using the Surface Plasmon Resonance method, the "on" and "off" rates for 14-3-3 binding to the phosphorylated Raf-259 peptide were calculated (Table 6).

## CC(C)C[C@H](N)C(=O)N[C@@H](CO)C(=O)N[C@@H](CCC(N)=O)C(=O)N[C@@H](CCCNC(=N)N)C(=O)N[C@@H](CCC(N)=O)C(=O)N[C@@H](CCCNC(=N)N)C(=O)N[C@@H](CO)C(=O)N[C@H](C(=O)N[C@@H](COP(=O)(O)O)C(=O)N[C@H](C(=O)N1CCC[C@H]1C(=O)N[C@@H](CC(N)=O)C(=O)N[C@H](C(=O)N[C@@H](Cc1c[nH]cn1)C(=O)N[C@@H](C)C(=O)O)C(C)C)[C@@H](C)O)[C@@H](C)O [pS-Raf-259] (H-LSQRQRST[pS]TPNVHA-OH)
[1]; corrected for 7-12% efficiency of in vitro phosphorylation, read-out: true IC50
  IC50: 0.07 to 0.24 µM
[1]; not corrected for efficiency of phosphorylation, read-out: IC50
  IC50: 1 to 2 µM
[2]
  Kd: 0.128 µM
  koff: 0.0029 s⁻¹
  kon: 22600 M⁻¹ s⁻¹
